{"source": "patent US20240262917A1", "about": "“ANTIBODIES AGAINST ALK AND METHODS OF USE THEREOF” (Dana-Farber Cancer Institute, Inc., priority 2021, published 2024)", "key": {"ALK ECD cleavage": {"tested_on": "ALK ECD cleavage", "experiment": "WB analysis of ALK ECD cleavage in cells treated with MMP inhibitors", "assay_type": "cell-based", "conditions": "for ALK ECD cleavage / shed fragment: 2 μM×12 hr.; for levels of the shed ALK ECD fragment in media from treated cells: indicated doses", "source_text": "(§1) (A) WB analysis of ALK expression in lysates and CM of NGP cells treated with the broad-spectrum protease inhibitor GM6001 and the MMP-9/13 inhibitor CAS 204140-01-2, at the indicated doses, for 12 hr. Untreated (U) or DMSO-treated cells were used as controls. The 8G7 N-terminal anti-ALK antibody was used to detect the shed fragment in CM and a C-terminal anti-ALK antibody used for the cell lysates in this and subsequent panels. β-actin is used as a loading control throughout this figure. (B) WB analysis of ALK expression in NGP cells treated with the MMP-9 (CTK8G1150) and MMP-3/12/13 (MMP408) inhibitors (2 μM×12 hr.). (C) WB analysis of ALK expression in the indicated NB cell lines treated with or without CTK8G1150 (2 μM for 12 hr.). (D) WB analysis of MMP-9 and ALK expression in NGP and BE (2)-C NB cells expressing either a control shRNA (shGFP) or two different shRNAs against MMP-9. (E) Crystal violet-stained images of NGP and IMR-5 NB cells treated with CTK8G1150 ([…]) or DMSO for 16 hr. and then subjected to transwell migration assays for 48 hr. (left). Scale bar, 100 μm. Quantification of migration (right) reported as means±SD; ** p<0.01, n=4. See also, FIG. 14.\n(A) Immunoblot analyses of ALK expression in NGP cells after shRNA depletion of ADAM17 or ADAM10. Five separate shRNAs for ADAM17 and two shRNAs for ADAM10 were used. GADPH or β-actin were included as internal loading controls in this and subsequent panels. (B) Schematic illustration of the protease predicted to cleave ALK at the identified ECD cleavage site (Asn654-Leu655) generated using PROSPER and CleavPredict software. FIG. 14B discloses SEQ ID NO: 73. (C) WB analysis of ALK expression in the indicated lysates or conditioned media from cells engineered to express WT ALK and treated with or without the MMP-9 inhibitor, CTK8G1150 (2 μM for 12 hr.). Untreated cells or cells treated with DMSO were used as controls. The 8G7 N-terminal anti-ALK antibody was used to detect the shed fragment in conditioned medium (CM) and a C-terminal anti-ALK antibody was used for the cell lysates in this and subsequent panels. (D) WB analysis of ALK expression in NGP cells treated with the indicated concentrations of CTK8G1150 for 12 hr. (E) WB analysis of ALK expression in NGP cells treated with CTK8G1150 (2 μM) for the indicated time periods. (F) WB analysis of ALK following incubation of recombinant MMP-9 to ALK protein purified from 293T cells engineered to express WT or ALK LF655del.\nMost receptor tyrosine kinases (RTKs) undergo ECD cleavage by proteases known as sheddases, that include matrix metalloproteinases (MMPs) and A disintegrin and metalloproteinases (ADAMs) (Kreitman et al., 2018). These zinc-dependent, membrane-associated or secreted proteases cleave cell surface transmembrane proteins that play a primary role in the degradation of extracellular matrix proteins, thus affecting multiple biological functions, such as cell signaling, growth factor activation and cytokine release. […] We next determined whether ALK could be cleaved by MMP-9 in vitro (FIG. 14, panel F). […] Finally, to confirm the role of MMP-9 in ALK cleavage, we genetically depleted this protease through shRNA knockdown in two NB cell lines [NGP and BE(2)-C], observing a significant decrease in the 140 kDa product resulting from inhibition of cleavage (FIG. 7, panel D). Depletion of MMP-2, by contrast, led to only a slight decrease in cleavage.\nCell lysates were prepared in NP-40 buffer (Invitrogen) containing complete protease inhibitor (Roche), phosphatase inhibitor (Roche) and phenylmethylsulfonyl fluoride (PMSF). Lysates were incubated on ice for 20 min and centrifuged at 16,000 g for 15 min at 4° C. Protein concentrations of the supernatants were determined with the DC protein assay kit (Bio-Rad). Protein samples were denatured using NuPAGE LDS sample buffer (Invitrogen) and NuPAGE sample reducing agent (Invitrogen). […]"}, "ALK-positive NSCLC": {"tested_on": "ALK-positive NSCLC", "conditions": "cited from earlier work"}, "neuroblastoma": {"tested_on": "neuroblastoma", "conditions": "human, in vivo; cited from earlier work"}, "NGP and IMR-5 NB cells": {"tested_on": "NGP and IMR-5 NB cells", "experiment": "Transwell migration assay after MMP-9 inhibitor treatment", "assay_type": "cell-based, human", "conditions": "CTK8G1150 (2 µM) 16 hr., transwell migration 48 hr.", "source_text": "as §1\nCell migration was measured using transwell chambers (Falcon; cell culture inserts with 8 μm pores) and a 24-well plate as the lower chamber. […]"}}, "data": [{"smiles": "COC(=O)Nc1ccc2oc3cc(S(=O)(=O)N[C@@H](C(=O)O)C(C)C)ccc3c2c1", "note": "[MMP408]", "values": [{"measurement": "ALK ECD cleavage / shed fragment", "setting": "ALK ECD cleavage; NGP cells", "value": "did not affect cleavage"}]}, {"smiles": "CNC(=O)[C@H](Cc1c[nH]c2ccccc12)NC(=O)[C@@H](CC(=O)NO)CC(C)C", "note": "[GM6001]", "values": [{"measurement": "levels of the shed ALK ECD fragment in media from treated cells", "setting": "ALK ECD cleavage; NGP cells, 12 hr.", "value": "caused a decrease in the levels of the shed ALK ECD fragment"}]}, {"smiles": "Cc1cc(Nc2ncc(Cl)c(Nc3ccccc3S(=O)(=O)C(C)C)n2)c(OC(C)C)cc1C1CCNCC1", "note": "[ceritinib]", "values": [{"measurement": "median duration of response", "setting": "ALK-positive NSCLC", "value": 16.6, "unit": "months"}]}, {"smiles": "COc1ccc(S(=O)(=O)N2CCN(C(=O)c3ccc(-c4ccccc4)cc3)CC2C(=O)NO)cc1", "note": "(centres unmarked) [CAS 204140-01-2]", "values": [{"measurement": "levels of the shed ALK ECD fragment in media from treated cells", "setting": "ALK ECD cleavage; NGP cells, 12 hr.", "value": "caused a decrease in the levels of the shed ALK ECD fragment"}]}, {"smiles": "C[C@@H](Oc1cc(-c2cnn(C3CCNCC3)c2)cnc1N)c1c(Cl)ccc(F)c1Cl", "note": "[crizotinib]", "values": [{"measurement": "durability of responses in neuroblastoma patients", "setting": "neuroblastoma", "value": "has not shown durable responses"}]}, {"smiles": "CCN(CC)Cc1cc(C)c(N(Cc2ccccc2)S(=O)(=O)c2ccc(OC)cc2)c(C(=O)NO)c1", "note": "[CTK8G1150]", "values": [{"measurement": "migration of NB cells that endogenously expressed WT ALK", "setting": "NGP and IMR-5 NB cells", "value": "significantly suppressed the migration"}, {"measurement": "inhibition of ECD cleavage in cells engineered to overexpress WT ALK", "setting": "ALK ECD cleavage; 293T and NIH3T3 cells, 2 μM for 12 hr.", "value": "significant inhibition of ECD cleavage"}, {"measurement": "ECD cleavage in endogenous WT ALK-expressing NB cell lines", "setting": "ALK ECD cleavage; NGP NB cells and four additional NB cell lines, 2 μM for 12 hr.", "value": "inhibited ECD cleavage"}, {"measurement": "period over which ALK ECD cleavage disruption was maintained", "setting": "ALK ECD cleavage; NGP cells, 2 μM", "value": "> 52", "unit": "h"}, {"measurement": "ALK ECD cleavage / shed fragment", "setting": "ALK ECD cleavage; NGP cells", "value": "produced a marked decrease in the shed fragment"}, {"measurement": "dose dependence of ALK ECD cleavage disruption", "setting": "ALK ECD cleavage; NGP cells, indicated concentrations, 12 hr.", "value": "disrupted in a dose-dependent manner"}]}]}
